Experimental data reported in US10336790B2 (priority 2014, dated 2019).
Ends that are not written are not given here.

Key:
[1] = tested on: lung epithelial A549 cell line; assay: Peptide cytotoxicity, Trypan Blue exclusion assay; format: cell-based, human
Procedure: (§1) Cytotoxicity studies were performed using three mammalian cell lines which included mouse macrophage J774.16 cell line, human lung epithelial A549 cell line, and sheep red blood cells (sRBCs) in Trypticase soy agar (TSA). Mouse macrophage J774.16 cell line (maintained in antibiotic-free Dulbecco's modified Eagle's medium containing 20% fetal bovine serum, 5% NCTC 109, 1% nonessential amino acids and 1% glutamine) or human lung epithelial A549 cell line (maintained in antibiotic-free Ham's F12 medium supplemented with 10% fetal bovine serum) was seeded at a density of approximately 1×10^5 cells per ml in Lab-tek Permanox eight-chamber microscopy slides (Nunc, Inc., Naperville, Ill.) and incubated for 3 (J774.16) or 5 (A549) days before use. After cell differentiation to a confluence of 70 to 80%, the culture media was replaced with fresh media containing the different AMPS at 64 μg/ml or at toxic dose (320 μg/ml) or controls (media only for negative control or 50 μM NaN3 for positive control). Similarly, AMPS or 1% Triton 100-X as positive control or media only (negative control) was each added to separate wells and allowed to be absorbed into agar at room temperature. All experiments were incubated for 24 hr at 37° C., 5% CO2. All experiments were done in duplicates. Cytotoxicity for J774.16 or A549 cells was monitored using Trypan Blue exclusion assay and the ratio of dead to viable cells was recorded. For sRBCs, the presence of cell lysis after 24 hr of incubation at 37° C. following treatment indicated cytotoxicity.

macrophage J774.16 cells = assay: Peptide cytotoxicity, Trypan Blue exclusion assay; format: cell-based, mouse; conditions: for cell death: 170 μM peptide, negative control 10%
Procedure: as §1

[2] = tested on: M. tuberculosis strain MC26230
[3] = 170 μM peptide concentration, compared with the negative control

| Substance | cytotoxicity [1, 3] | cell death (macrophage J774.16 cells; 24 hr) | MIC (M. tuberculosis MC26020) | cytotoxicity ([1]; milder than on J774.16 cells, concentration not restated (320 μg/mL in preceding sentence)) | cytotoxic concentration (320 μg/mL) relative to MIC against mycobacteria and streptococci (macrophage J774.16 cells) | cytotoxicity (macrophage J774.16 cells; 320 μg/mL, 24 hr) | MIC [2] |
| --- | --- | --- | --- | --- | --- | --- | --- |
| ILSLRWWRKWWKK-NH2 [Peptide B2, ILSLRWWRKWWKK] | Slight cytotoxicity | 20% | 32 µg/mL | – | – | – | – |
| IRKLKSWKWLRWL-NH2 [Peptide B4, IRKLKSWKWLRWL] | – | – | 32 µg/mL | – | – | – | – |
| ILSLRWRWKWWKK-NH2 [Peptide B1, ILSLRWRWKWWKK] | – | – | 32 µg/mL | – | – | – | – |
| ILSLRWRWWKWKK-NH2 [Peptide B3, ILSLRWRWWKWKK] | Slight cytotoxicity | 40% | 8 µg/mL | some degree of cytotoxicity | at least five times the MIC | moderate cytotoxicity | 64 µg/mL |
